Experimental data reported in patent US10165776B2, “Substituted pyrazolylpyrazole derivative and use of same as herbicide” (KYOYU AGRI CO., LTD., priority 2015, dated 2019).

Columns and labels:
Type in all cases: in vivo
Digitaria ciliaris [1] = experiment: Weed foliar treatment test (Test 4, 4.0 to 5.0 leaf stage); details: 10 g a.i./10 a; foliar spray at 4.0 to 5.0 leaf stage of Digitaria ciliaris (plant height 10 cm to 15 cm); 20 days at 25° C.
Protocol: (§1) Field soil was filled into a 1/4500 are pot followed by seeding with Digitaria ciliaris and Galinsoga parviflora, covering with soil and cultivating in a glass greenhouse at an average atmospheric temperature of 25° C. Wettable powders of Target Compound (I) shown in Table 1 prepared in compliance with the preparation examples were diluted with water to the prescribed amount of chemical and uniformly sprayed onto the weeds using 100 liters of sprayed water per 10 are when Digitaria ciliaris had grown to the 4.0 to 5.0 leaf stage (plant height: 10 cm to 15 cm). After treating for 20 days in a glass greenhouse at an average atmospheric temperature of 25° C., the herbicidal efficacy thereof was investigated. Evaluation of herbicidal efficacy was carried out in the same manner as the above-mentioned Test Example 1.

Galinsoga parviflora = experiment: as above; details: 10 g a.i./10 a; foliar spray at 4.0 to 5.0 leaf stage of Digitaria ciliaris (plant height 10 cm to 15 cm); 20 days at 25° C.
Protocol: as §1

Echinochloa crus-galli = experiment: Paddy herbicidal activity test; details: irrigated pot, treated at 3.5 leaf stage of Echinochloa crus-galli, 30 days at 30° C.
Protocol: (§2) Rice paddy soil was filled into a 1/10000 are pot followed by the addition of suitable amounts of water and chemical fertilizer, kneading, seeding with Echinochloa crus-galli, Monochoria vaginalis and Scirpus juncoides and maintaining in an irrigated state at a water depth of 3 cm. Wettable powders of Target Compound (I) shown in Table 1 prepared in compliance with the preparation examples were diluted with a suitable amount of water, rice plants in the 2.0 leaf stage were transplanted during 3.5 leaf stage of Echinochloa crus-galli, and treated by dropping in chemical in the prescribed amount per 10 are using a pipette. After treating for 30 days in a glass greenhouse at an average atmospheric temperature of 30° C., the herbicidal efficacy thereof was investigated. Evaluation of herbicidal efficacy was carried out by comparing growth inhibition rate (%) with an untreated group, while evaluation of phytotoxicity was carried out by comparing growth inhibition rate (%) with the state of a complete eradication group, and were evaluated at 11 levels indicated below.

Monochoria vaginalis = experiment: Paddy herbicidal activity test; details: irrigated pot, treated at 3.5 leaf stage of Echinochloa crus-galli, 30 days at 30° C.
Protocol: as §2

Scirpus juncoides = experiment: Paddy herbicidal activity test; details: irrigated pot, treated at 3.5 leaf stage of Echinochloa crus-galli, 30 days at 30° C.
Protocol: as §2

Oryza sativa = experiment: Paddy herbicidal activity test, phytotoxicity to transplanted rice; details: rice transplanted at 2.0 leaf stage, 30 days at 30° C.
Protocol: as §2

Amaranthus retroflexus [2] = experiment: Farming soil treatment test; details: soil surface spray prior to weed growth, 30 days at 30° C.
Protocol: (§3) Field soil was filled into a 1/6000 are pot followed by seeding with Digitaria ciliaris, Chenopodium album and Amaranthus retroflexus and covering with soil. Wettable powders of compounds of formula (I) shown in Table 1 prepared in compliance with the preparation examples were diluted with water to the prescribed amount of chemical and uniformly sprayed onto each soil surface layer using 100 liters of sprayed water per 10 are prior to weed growth following seeding. After treating for 30 days in a glass greenhouse at an average atmospheric temperature of 30° C., the herbicidal efficacy thereof was investigated. Evaluation of herbicidal efficacy was carried out in the same manner as the above-mentioned Test Example 1.

Chenopodium album [3] = experiment: Farming soil treatment test; details: soil surface spray prior to weed growth, 30 days at 30° C.
Protocol: as §3

Digitaria ciliaris [4] = experiment: Farming soil treatment test; details: soil surface spray prior to weed growth, 30 days at 30° C.
Protocol: as §3

Amaranthus retroflexus [5] = experiment: Weed foliar treatment test (Test 3, 1.0 to 2.0 leaf stage); details: foliar spray at 1.0 to 2.0 leaf stage of Digitaria ciliaris, 3 weeks at 25° C.
Protocol: (§4) Soil was filled into a 1/6000 are pot followed by seeding with Digitaria ciliaris, Chenopodium album and Amaranthus retroflexus, covering with soil, and cultivating in a glass greenhouse at an average atmospheric temperature of 25° C. Wettable powders of Target Compound (I) shown in Table 1 prepared in compliance with the preparation examples were diluted with water to the prescribed amount of chemical and uniformly sprayed onto the weeds using 150 liters of sprayed water per 10 are when Digitaria ciliaris had grown to the 1.0 to 2.0 leaf stage. After treating for 3 weeks in a glass greenhouse at an average atmospheric temperature of 25° C., the herbicidal efficacy thereof was investigated. Evaluation of herbicidal efficacy was carried out in the same manner as the above-mentioned Test Example 1.

Chenopodium album [6] = experiment: as above; details: foliar spray at 1.0 to 2.0 leaf stage of Digitaria ciliaris, 3 weeks at 25° C.
Protocol: as §4

Digitaria ciliaris [7] = experiment: as above; details: foliar spray at 1.0 to 2.0 leaf stage of Digitaria ciliaris, 3 weeks at 25° C.
Protocol: as §4

N#Cc1cnn(-c2nn3c(c2Cl)CCC3)c1NC(=O)Cc1ccccc1 [Compound 2]
herbicidal efficacy, Digitaria ciliaris (Digitaria ciliaris [1]): 10 (10: 100%)
herbicidal efficacy, Galinsoga parviflora (Galinsoga parviflora): 10 (10: 100%)

N#Cc1cnn(-c2nn3c(c2Cl)CCCC3)c1NC(=O)Cc1ccccc1 [Compound 3]
herbicidal efficacy, Echinochloa crus-galli (Echinochloa crus-galli; 1 g a.i./10 a): 9 (9: 90% to less than 100%)
herbicidal efficacy, Echinochloa crus-galli (Echinochloa crus-galli; 5 g a.i./10 a): 10 (10: 100%)
herbicidal efficacy, Monochoria vaginalis (Monochoria vaginalis; 1 g a.i./10 a): 9 (9: 90% to less than 100%)
herbicidal efficacy, Monochoria vaginalis (Monochoria vaginalis; 5 g a.i./10 a): 10 (10: 100%)
herbicidal efficacy, Scirpus juncoides (Scirpus juncoides; 1 g a.i./10 a): 9 (9: 90% to less than 100%)
herbicidal efficacy, Scirpus juncoides (Scirpus juncoides; 5 g a.i./10 a): 10 (10: 100%)
phytotoxicity, Oryza sativa (Oryza sativa; 1 g a.i./10 a): 0 (0 (exponent): 0% to less than 10% (growth inhibition rate))
phytotoxicity, Oryza sativa (Oryza sativa; 5 g a.i./10 a): 1 (1: 10% to less than 20%)
herbicidal efficacy, Amaranthus retroflexus (Amaranthus retroflexus [2]; 5 g a.i./10 a): 9 (9: 90% to less than 100%)
herbicidal efficacy, Amaranthus retroflexus (Amaranthus retroflexus [2]; 10 g a.i./10 a): 9 (9: 90% to less than 100%)
herbicidal efficacy, Chenopodium album (Chenopodium album [3]; 5 g a.i./10 a): 9 (9: 90% to less than 100%)
herbicidal efficacy, Chenopodium album (Chenopodium album [3]; 10 g a.i./10 a): 10 (10: 100%)
herbicidal efficacy, Digitaria ciliaris (Digitaria ciliaris [4]; 5 g a.i./10 a): 9 (9: 90% to less than 100%)
herbicidal efficacy, Digitaria ciliaris (Digitaria ciliaris [4]; 10 g a.i./10 a): 9 (9: 90% to less than 100%)
herbicidal efficacy, Amaranthus retroflexus (Amaranthus retroflexus [5]; 5 g a.i./10 a): 9 (9: 90% to less than 100%)
herbicidal efficacy, Amaranthus retroflexus (Amaranthus retroflexus [5]; 10 g a.i./10 a): 10 (10: 100%)
herbicidal efficacy, Chenopodium album (Chenopodium album [6]; 5 g a.i./10 a): 10 (10: 100%)
herbicidal efficacy, Chenopodium album (Chenopodium album [6]; 10 g a.i./10 a): 10 (10: 100%)
herbicidal efficacy, Digitaria ciliaris (Digitaria ciliaris [7]; 5 g a.i./10 a): 10 (10: 100%)
herbicidal efficacy, Digitaria ciliaris (Digitaria ciliaris [7]; 10 g a.i./10 a): 10 (10: 100%)
herbicidal efficacy, Digitaria ciliaris (Digitaria ciliaris [1]): 10 (10: 100%)
herbicidal efficacy, Galinsoga parviflora (Galinsoga parviflora): 10 (10: 100%)

N#Cc1cnn(-c2nn3c(c2Br)CCCC3)c1NC(=O)Cc1ccccc1 [Compound 4]
herbicidal efficacy, Digitaria ciliaris (Digitaria ciliaris [1]): 10 (10: 100%)
herbicidal efficacy, Galinsoga parviflora (Galinsoga parviflora): 10 (10: 100%)

O=C(Cc1ccccc1)Nc1c([N+](=O)[O-])cnn1-c1nn2c(c1Cl)CCCC2 [Compound 5]
herbicidal efficacy, Echinochloa crus-galli (Echinochloa crus-galli; 1 g a.i./10 a): 10 (10: 100%)
herbicidal efficacy, Echinochloa crus-galli (Echinochloa crus-galli; 5 g a.i./10 a): 10 (10: 100%)
herbicidal efficacy, Monochoria vaginalis (Monochoria vaginalis; 1 g a.i./10 a): 10 (10: 100%)
herbicidal efficacy, Monochoria vaginalis (Monochoria vaginalis; 5 g a.i./10 a): 10 (10: 100%)
herbicidal efficacy, Scirpus juncoides (Scirpus juncoides; 1 g a.i./10 a): 9 (9: 90% to less than 100%)
herbicidal efficacy, Scirpus juncoides (Scirpus juncoides; 5 g a.i./10 a): 10 (10: 100%)
phytotoxicity, Oryza sativa (Oryza sativa; 1 g a.i./10 a): 1 (1: 10% to less than 20%)
phytotoxicity, Oryza sativa (Oryza sativa; 5 g a.i./10 a): 1 (1: 10% to less than 20%)
herbicidal efficacy, Amaranthus retroflexus (Amaranthus retroflexus [2]; 5 g a.i./10 a): 9 (9: 90% to less than 100%)
herbicidal efficacy, Amaranthus retroflexus (Amaranthus retroflexus [2]; 10 g a.i./10 a): 9 (9: 90% to less than 100%)
herbicidal efficacy, Chenopodium album (Chenopodium album [3]; 5 g a.i./10 a): 9 (9: 90% to less than 100%)
herbicidal efficacy, Chenopodium album (Chenopodium album [3]; 10 g a.i./10 a): 10 (10: 100%)
herbicidal efficacy, Digitaria ciliaris (Digitaria ciliaris [4]; 5 g a.i./10 a): 9 (9: 90% to less than 100%)
herbicidal efficacy, Digitaria ciliaris (Digitaria ciliaris [4]; 10 g a.i./10 a): 9 (9: 90% to less than 100%)
herbicidal efficacy, Amaranthus retroflexus (Amaranthus retroflexus [5]; 5 g a.i./10 a): 10 (10: 100%)
herbicidal efficacy, Amaranthus retroflexus (Amaranthus retroflexus [5]; 10 g a.i./10 a): 10 (10: 100%)
herbicidal efficacy, Chenopodium album (Chenopodium album [6]; 5 g a.i./10 a): 10 (10: 100%)
herbicidal efficacy, Chenopodium album (Chenopodium album [6]; 10 g a.i./10 a): 10 (10: 100%)
herbicidal efficacy, Digitaria ciliaris (Digitaria ciliaris [7]; 5 g a.i./10 a): 10 (10: 100%)
herbicidal efficacy, Digitaria ciliaris (Digitaria ciliaris [7]; 10 g a.i./10 a): 10 (10: 100%)
herbicidal efficacy, Digitaria ciliaris (Digitaria ciliaris [1]): 10 (10: 100%)
herbicidal efficacy, Galinsoga parviflora (Galinsoga parviflora): 10 (10: 100%)

COc1ccccc1CC(=O)Nc1c(C#N)cnn1-c1nn2c(c1Cl)CCCC2 [Compound 7]
herbicidal efficacy, Digitaria ciliaris (Digitaria ciliaris [1]): 10 (10: 100%)
herbicidal efficacy, Galinsoga parviflora (Galinsoga parviflora): 10 (10: 100%)

N#Cc1cnn(-c2nn3c(c2Cl)CCCC3)c1NC(=O)Cc1ccccc1Cl [Compound 8]
herbicidal efficacy, Digitaria ciliaris (Digitaria ciliaris [1]): 10 (10: 100%)
herbicidal efficacy, Galinsoga parviflora (Galinsoga parviflora): 10 (10: 100%)

COc1cccc(CC(=O)Nc2c(C#N)cnn2-c2nn3c(c2Cl)CCCC3)c1 [Compound 10]
herbicidal efficacy, Digitaria ciliaris (Digitaria ciliaris [1]): 10 (10: 100%)
herbicidal efficacy, Galinsoga parviflora (Galinsoga parviflora): 10 (10: 100%)

N#Cc1cnn(-c2nn3c(c2Cl)CCCC3)c1NC(=O)Cc1cccc(Cl)c1 [Compound 12]
herbicidal efficacy, Digitaria ciliaris (Digitaria ciliaris [1]): 10 (10: 100%)
herbicidal efficacy, Galinsoga parviflora (Galinsoga parviflora): 10 (10: 100%)

Cc1ccc(CC(=O)Nc2c(C#N)cnn2-c2nn3c(c2Cl)CCCC3)cc1 [Compound 13]
herbicidal efficacy, Digitaria ciliaris (Digitaria ciliaris [1]): 10 (10: 100%)
herbicidal efficacy, Galinsoga parviflora (Galinsoga parviflora): 10 (10: 100%)

COc1ccc(CC(=O)Nc2c(C#N)cnn2-c2nn3c(c2Cl)CCCC3)cc1 [Compound 14]
herbicidal efficacy, Digitaria ciliaris (Digitaria ciliaris [1]): 10 (10: 100%)
herbicidal efficacy, Galinsoga parviflora (Galinsoga parviflora): 10 (10: 100%)

N#Cc1cnn(-c2nn3c(c2Cl)CCCC3)c1NC(=O)Cc1ccc(Cl)cc1 [Compound 16]
herbicidal efficacy, Digitaria ciliaris (Digitaria ciliaris [1]): 10 (10: 100%)
herbicidal efficacy, Galinsoga parviflora (Galinsoga parviflora): 10 (10: 100%)

N#Cc1cnn(-c2nn3c(c2Cl)CCCC3)c1NC(=O)Cc1ccc(C(F)(F)F)cc1 [Compound 17]
herbicidal efficacy, Digitaria ciliaris (Digitaria ciliaris [1]): 10 (10: 100%)
herbicidal efficacy, Galinsoga parviflora (Galinsoga parviflora): 10 (10: 100%)

N#Cc1cnn(-c2nn3c(c2Cl)CCCC3)c1NC(=O)Cc1ccc(Cl)cc1Cl [Compound 18]
herbicidal efficacy, Digitaria ciliaris (Digitaria ciliaris [1]): 10 (10: 100%)
herbicidal efficacy, Galinsoga parviflora (Galinsoga parviflora): 10 (10: 100%)
